How the values were obtained:
Details in all cases: 72 h
Calu-3 [1] = assay: relative viability EC50 (midpoint between 100% and the lowest measured viability); higher = less toxic
Vero E6 [2] = assay: as above
U2OS [3] = assay: as above
HepG2 [4] = assay: as above
Caco-2 [5] = assay: as above
Calu-3 [6] = assay: drug sensitivity score (DSS) for viability; higher = more toxic; extreme values may be limits of the assay
Vero E6 [7] = assay: as above
U2OS [8] = assay: as above
HepG2 [9] = assay: as above
Caco-2 [10] = assay: as above
Calu-3 [11] = assay: cell viability relative to DMSO; higher = less toxic
Vero E6 [12] = assay: as above
U2OS [13] = assay: as above
HepG2 [14] = assay: as above
Caco-2 [15] = assay: as above

| SMILES | relative viability EC50 (Calu-3 [1]) [µM] | relative viability EC50 (Vero E6 [2]) [µM] | relative viability EC50 (U2OS [3]) [µM] | relative viability EC50 (HepG2 [4]) [µM] | relative viability EC50 (Caco-2 [5]) [µM] | drug sensitivity score (Calu-3 [6]) | drug sensitivity score (Vero E6 [7]) | drug sensitivity score (U2OS [8]) | drug sensitivity score (HepG2 [9]) | drug sensitivity score (Caco-2 [10]) | cell viability (Calu-3 [11]; 1 nM) [%] | cell viability (Calu-3 [11]; 10 nM) [%] | cell viability (Calu-3 [11]; 100 nM) [%] | cell viability (Calu-3 [11]; 1000 nM) [%] | cell viability (Calu-3 [11]; 10000 nM) [%] | cell viability (Vero E6 [12]; 1 nM) [%] | cell viability (Vero E6 [12]; 10 nM) [%] | cell viability (Vero E6 [12]; 100 nM) [%] | cell viability (Vero E6 [12]; 1000 nM) [%] | cell viability (Vero E6 [12]; 10000 nM) [%] | cell viability (U2OS [13]; 1 nM) [%] | cell viability (U2OS [13]; 10 nM) [%] | cell viability (U2OS [13]; 100 nM) [%] | cell viability (U2OS [13]; 1000 nM) [%] | cell viability (U2OS [13]; 10000 nM) [%] | cell viability (HepG2 [14]; 1 nM) [%] | cell viability (HepG2 [14]; 10 nM) [%] | cell viability (HepG2 [14]; 100 nM) [%] | cell viability (HepG2 [14]; 1000 nM) [%] | cell viability (HepG2 [14]; 10000 nM) [%] | cell viability (Caco-2 [15]; 1 nM) [%] | cell viability (Caco-2 [15]; 10 nM) [%] | cell viability (Caco-2 [15]; 100 nM) [%] | cell viability (Caco-2 [15]; 1000 nM) [%] | cell viability (Caco-2 [15]; 10000 nM) [%] |
| --- | --- | --- | --- | --- | --- | --- | --- | --- | --- | --- | --- | --- | --- | --- | --- | --- | --- | --- | --- | --- | --- | --- | --- | --- | --- | --- | --- | --- | --- | --- | --- | --- | --- | --- | --- |
| CCC[S+]([O-])c1ccc2[nH]c(NC(=O)OC)nc2c1 (configuration not stated) [albendazole-oxide] | > 10 | > 10 | > 10 | > 10 | > 10 | 0 | 0 | 0 | 0.2 | 0 | 114 | 104 | 103 | 95.7 | 107 | 103 | 104 | 102 | 101 | 94 | 105 | 101 | 101 | 99.6 | 103 | 107 | 103 | 98 | 106 | 83.7 | 101 | 98.8 | 96.6 | 101 | 102 |
| OC(CCN1CCCCC1)(c1ccccc1)C1CCCCC1 (configuration not stated) [trihexyphenidyl] | > 10 | > 10 | > 10 | > 10 | – | 0.5 | 0.5 | 0 | 0.3 | 1.7 | 102 | 98.9 | 96.7 | 90.7 | 85.6 | 103 | 106 | 112 | 98.9 | 83.1 | 96.9 | 103 | 101 | 98.1 | 97.8 | 101 | 87.7 | 100 | 93.2 | 83.4 | 101 | 100 | 95.5 | 94.6 | 74.7 |
| C[C@@]1(CO)[C@H](O)CC[C@@]2(C)[C@H]1CC[C@H]1C[C@@H]3C[C@@]12CC[C@]3(O)CO [aphidicolin] | > 10 | 2.02 | > 10 | 0.608 | – | 2.1 | 5.1 | 0.8 | 10.6 | 6.8 | 111 | 100 | 110 | 87.3 | 77.7 | 106 | 109 | 100 | 90.7 | 35.8 | 106 | 104 | 101 | 98.7 | 79.4 | 100 | 100 | 91.3 | 50.5 | 22.5 | 100 | 100 | 80 | 79.2 | 72 |
| CCc1cncnc1N1CCN(Cc2nc3cc(C(F)(F)F)ccc3[nH]2)CC1 | > 10 | > 10 | > 10 | 2.21 | – | 1.1 | 0 | 0.9 | 4.8 | 2.1 | 80.8 | 101 | 84.2 | 89.9 | 88.2 | 99.5 | 104 | 101 | 101 | 89.9 | 96.6 | 101 | 98.5 | 97.7 | 79.9 | 97.6 | 103 | 103 | 92.4 | 34.8 | 93.2 | 109 | 99 | 98.5 | 61.8 |
